Test systems include COLO 205 colon; K-562 leukemia; MOLT-4 leukemia; OVCAR-4 ovarian; UACC-62 melanoma; UO-31 renal; CCRF-CEM leukemia; IGROV1 ovarian; NCI-H460 lung; OVCAR-3 ovarian.
Experiment in all cases: growth of human tumour cells (NCI), 48 h

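Five compound concentrations were applied to cells in 96-well plates for 48 hours; endpoints were derived by simple linear interpolation of the resulting dose-response curve. TGI is the concentration that stops growth completely.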

Data on 14 compounds can be found in PubChem BioAssay (NCI).

`Cc1ccc2c3c1[C@@H]1O[C@@H]1c1cccc(c1-3)[C@@H]1O[C@H]21`: the TGI with COLO 205 colon worked out at 33.9 µM; in the assay on K-562 leukemia it was 37.5 µM; in the assay with MOLT-4 leukemia it was 12.8 µM; with OVCAR-4 ovarian it was 33.3 µM; in the assay on UACC-62 melanoma, 40.2 µM; in the assay on UO-31 renal it was 27.7 µM.
Take `N#Cc1c(-c2ccc(Cl)cc2)c2c([nH]c1=O)-c1cc([N+](=O)[O-])ccc1CCC2`: the TGI was above 100 µM in the assay on CCRF-CEM leukemia; 49.7 µM in the assay with COLO 205 colon; 60.3 µM in the assay with IGROV1 ovarian; above 100 µM with K-562 leukemia; above 100 µM in the assay on MOLT-4 leukemia; 42.5 µM in the assay with NCI-H460 lung. For the same compound, the TGI in the assay on OVCAR-3 ovarian is 31.8 µM; in the assay on OVCAR-4 ovarian, above 100 µM; with UACC-62 melanoma, 32.4 µM; in the assay with UO-31 renal, 32.5 µM.
For the compound `COP(=O)(OC)[C@H](O)[C@H]1C[C@@H]1c1ccccc1`, the TGI in the assay on COLO 205 colon, with IGROV1 ovarian, in the assay on K-562 leukemia, with MOLT-4 leukemia, with NCI-H460 lung and in the assay with OVCAR-3 ovarian was above 100 µM each time. In addition, the TGI with OVCAR-4 ovarian, with UACC-62 melanoma and in the assay with UO-31 renal was above 100 µM in each case.
For the compound `NC(=O)CCSC(CC(=O)c1ccc(Cl)cc1)c1ccc(Cl)cc1` (configuration not stated), the TGI in the assay with CCRF-CEM leukemia is 8.11 µM; in the assay with COLO 205 colon it was above 100 µM; with IGROV1 ovarian it was 34.8 µM; in the assay on K-562 leukemia, above 100 µM; with MOLT-4 leukemia it was 35.8 µM; with NCI-H460 lung, above 100 µM. In addition, the TGI with OVCAR-3 ovarian is 40.6 µM; in the assay with OVCAR-4 ovarian, 45.2 µM; in the assay with UACC-62 melanoma it was 56 µM; in the assay with UO-31 renal, above 100 µM.
Regarding `CCN(CCO)CCNc1ccc(C)c2sc3ccccc3c(=O)c12`, the TGI in the assay with CCRF-CEM leukemia was 27.6 µM; in the assay with COLO 205 colon, 3.12 µM; in the assay with IGROV1 ovarian, 12.9 µM; in the assay on K-562 leukemia, 11.9 µM; with MOLT-4 leukemia, 18.8 µM; in the assay on NCI-H460 lung it was 3.88 µM. The TGI worked out at 23.3 µM in the assay on OVCAR-3 ovarian, 21.7 µM with OVCAR-4 ovarian, 3.34 µM in the assay with UACC-62 melanoma and 15 µM with UO-31 renal.
As for `O=c1[nH]c2cc([N+](=O)[O-])c(N/N=C/c3ccc(Cl)cc3Cl)c([N+](=O)[O-])c2[nH]1`, the TGI in the assay on CCRF-CEM leukemia is above 100 µM; with COLO 205 colon it was above 100 µM; in the assay with IGROV1 ovarian, 78.3 µM; in the assay on K-562 leukemia it was above 100 µM; with MOLT-4 leukemia it was above 100 µM; in the assay on NCI-H460 lung it was above 100 µM. The TGI was 35.3 µM with OVCAR-3 ovarian, 94.6 µM in the assay with OVCAR-4 ovarian, above 100 µM with UACC-62 melanoma and above 100 µM with UO-31 renal.
As for `O=CN1CCC23CC(O)CCC2C1Cc1cc(Oc2nnnn2-c2ccccc2)cc(O)c13` (configuration not stated), the TGI in the assay on CCRF-CEM leukemia, with COLO 205 colon, in the assay on IGROV1 ovarian, in the assay on K-562 leukemia, in the assay on MOLT-4 leukemia and in the assay with NCI-H460 lung was above 100 µM in each case. In addition, the TGI with OVCAR-3 ovarian, with OVCAR-4 ovarian, in the assay with UACC-62 melanoma and in the assay on UO-31 renal was above 100 µM in each case.
Consider `COc1ccc2c(c1)CCCc1c-2nc2ccccc2c1N`, for which the TGI was 32 µM with CCRF-CEM leukemia; 3.22 µM with COLO 205 colon; 28.7 µM in the assay on IGROV1 ovarian; 58.5 µM with K-562 leukemia; 66.5 µM in the assay on MOLT-4 leukemia; 16.9 µM in the assay with NCI-H460 lung. For the same compound, the TGI worked out at 27.5 µM in the assay with OVCAR-3 ovarian, 27.3 µM in the assay on OVCAR-4 ovarian, 25.4 µM in the assay on UACC-62 melanoma and 18.5 µM with UO-31 renal.
Turning to `COc1ccc(N=Nc2c(N)nn(C)c2N)cc1`, the TGI with CCRF-CEM leukemia, in the assay with COLO 205 colon, with IGROV1 ovarian, with K-562 leukemia, with MOLT-4 leukemia and in the assay on NCI-H460 lung was above 100 µM throughout. Further, the TGI with OVCAR-3 ovarian, with OVCAR-4 ovarian, with UACC-62 melanoma and in the assay with UO-31 renal was above 100 µM each time.
Take `O=C(NC(Cc1ccc(Cl)cc1)C(=O)O)c1ccc(I)cc1` (configuration not stated): the TGI in the assay with CCRF-CEM leukemia, with COLO 205 colon, with IGROV1 ovarian, in the assay with K-562 leukemia, in the assay on MOLT-4 leukemia and in the assay with NCI-H460 lung was above 100 µM in each case. Moreover, the TGI with OVCAR-3 ovarian, in the assay on OVCAR-4 ovarian, in the assay with UACC-62 melanoma and with UO-31 renal was above 100 µM each time.
`CCOC(=O)C12CC(C)=C(C)CC1CCCc1ccccc12` (configuration not stated): the TGI with CCRF-CEM leukemia was 41.6 µM; in the assay with COLO 205 colon, 33.9 µM; in the assay with IGROV1 ovarian it was above 100 µM; in the assay on K-562 leukemia, 78.2 µM; in the assay on MOLT-4 leukemia it was 52.3 µM; in the assay with NCI-H460 lung, 32.7 µM. Also, the TGI was 42.6 µM in the assay on OVCAR-3 ovarian, above 100 µM in the assay with OVCAR-4 ovarian, above 100 µM in the assay on UACC-62 melanoma and above 100 µM with UO-31 renal.
For the compound `CCCCCCCCCCCCSC(=S)c1c(C)[nH]n(CCCCCCCCCCCC)c1=O`, the TGI with CCRF-CEM leukemia, in the assay on COLO 205 colon, with IGROV1 ovarian, in the assay on K-562 leukemia, in the assay on MOLT-4 leukemia and with NCI-H460 lung was above 100 µM each time. Further, the TGI in the assay on OVCAR-3 ovarian, in the assay with OVCAR-4 ovarian, in the assay on UACC-62 melanoma and in the assay with UO-31 renal was above 100 µM throughout.
Take `CCCC[C@H]1C(=O)O[C@H](C)[C@H](NC(=O)c2cccc(NC=O)c2OC)C(=O)O[C@@H](C)[C@@H]1OC(=O)CC(C)C` (tested in a mixture with another compound): the TGI with CCRF-CEM leukemia worked out at 24.4 µM; in the assay on COLO 205 colon, 27.1 µM; with IGROV1 ovarian, 15 µM; with K-562 leukemia, 58 µM; in the assay on MOLT-4 leukemia, 51.4 µM; in the assay on NCI-H460 lung, 21.4 µM. Further, the TGI in the assay with OVCAR-3 ovarian amounted to 27.7 µM; in the assay with OVCAR-4 ovarian it was 21.1 µM; in the assay with UACC-62 melanoma it was 18.5 µM; in the assay with UO-31 renal, 41.4 µM.
With `COc1cc(C2C(=O)C(Cl)N2Nc2nc(C)cc(=O)[nH]2)cc(OC)c1OC` (configuration not stated), the TGI worked out at 35 µM with IGROV1 ovarian; 41.1 µM with K-562 leukemia; 39.9 µM with MOLT-4 leukemia; 21.9 µM with NCI-H460 lung; 45.1 µM in the assay on OVCAR-3 ovarian; 56.2 µM in the assay with OVCAR-4 ovarian. Further, the TGI in the assay on UO-31 renal turned out to be 79.1 µM.
